One data set deals with T1, (hu)CMKLR1 L1.2 cells (Homo sapiens, UniProt Q99788).
T1 construct: expressed in transfected cells; host or cells: L1.2 pre-B cell lymphoma cells
T1 sequence (Q99788 1-373): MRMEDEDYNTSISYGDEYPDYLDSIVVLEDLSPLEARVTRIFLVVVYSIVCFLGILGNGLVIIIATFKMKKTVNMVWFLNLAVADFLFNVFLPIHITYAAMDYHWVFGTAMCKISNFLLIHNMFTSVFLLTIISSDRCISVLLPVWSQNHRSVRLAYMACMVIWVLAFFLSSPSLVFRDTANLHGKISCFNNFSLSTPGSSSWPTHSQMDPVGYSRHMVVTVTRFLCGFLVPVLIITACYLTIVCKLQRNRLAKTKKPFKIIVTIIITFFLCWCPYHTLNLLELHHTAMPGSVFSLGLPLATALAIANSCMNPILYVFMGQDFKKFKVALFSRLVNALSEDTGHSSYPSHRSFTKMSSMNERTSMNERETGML
In words: Chemotaxis assay (chemerin-dependent CMKLR1+ cell migration). Type of data set: cell-based. The note with it: Table 3; migration toward huChemerin, 2 h transwell; read-out: Chemotaxis IC50 μM mean ± SEM (n). The protocol:
Cell culture. (hu)CMKLR1 transfectants (generated in L1.2 pre-B cell lymphoma cells) were grown in RPMI 1640 (Corning) supplemented with L-glutamine, penicillin-streptomycin, and 10% BCS and G418-sulfate (KSE Scientific). DiscoverX PathHunter® CHO-K1 CMKLR1 β-Arrestin Cells were grown in RPMI lacking phenol red (Gibco, Life Technologies), supplemented with L-glutamine, penicillin-streptomycin, sodium pyruvate, non-essential amino acid, BCS, hygromycin, and G418-sulfate.
Chemotaxis assay. (hu)CMKLR1 L1.2 cells at 1×10^6 cell/ml were treated with 5 mM sodium butyrate (Sigma) overnight to induce hCMKLR1 expression. The next day, cells were washed in migration media (RPMI+0.5% BSA) and resuspended at 1.5-3×10^6 cell/ml. Cells were pre-incubated at RT for 10 min with various concentrations of α-NETA or test compounds (α-NETA and test compounds were reconstituted in DMSO; final DMSO concentration in each well was 0.1%). 100 ul of cells were added to the upper chamber of a 24-well transwell plate (5 um pore size, Costar). Cells were allowed to migrate toward huChemerin ([…] in migration media, bottom chamber) for 2 h, 37° C., 5% CO2. The number of migrated cells was quantified by flow cytometry (BD LSR2), and live cells were distinguished based on FSC×SSC properties. The background for this assay was typically low with 0 cells migrating to the buffer alone. For each independent trial, data was normalized to the maximum migration per compound tested and an IC50 value was generated using GraphPad Prism software. The average IC50 value for n independent trials (as specified in the table) is reported.

For another data set, the target named is T2, Cyp2B6 (Homo sapiens, UniProt P20813).
T2 construct: Human liver microsomes were pre-incubated with 7 concentrations; tissue Cyprotex/Evotec AG; host or cells: human liver microsomes
T2 sequence (P20813 1-491): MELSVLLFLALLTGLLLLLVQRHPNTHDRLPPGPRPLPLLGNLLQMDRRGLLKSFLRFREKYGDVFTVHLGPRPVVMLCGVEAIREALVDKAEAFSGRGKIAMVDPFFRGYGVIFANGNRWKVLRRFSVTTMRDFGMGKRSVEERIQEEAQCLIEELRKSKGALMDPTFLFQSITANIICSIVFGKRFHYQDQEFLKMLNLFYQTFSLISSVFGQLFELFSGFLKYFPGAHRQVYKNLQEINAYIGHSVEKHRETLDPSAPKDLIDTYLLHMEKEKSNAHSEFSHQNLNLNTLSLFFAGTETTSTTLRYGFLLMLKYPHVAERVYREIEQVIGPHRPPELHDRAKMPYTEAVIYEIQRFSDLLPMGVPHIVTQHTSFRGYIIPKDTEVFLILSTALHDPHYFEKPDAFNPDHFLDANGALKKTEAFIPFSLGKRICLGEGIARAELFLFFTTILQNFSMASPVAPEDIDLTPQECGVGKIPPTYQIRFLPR
In words: Cyp enzyme inhibition, human liver microsomes. It is filed as in vitro ADME. The note with it: 30 min pre-incubation. The protocol: (§1) Cyp enzyme inhibition. Human liver microsomes were pre-incubated with 7 concentrations ([…], duplicate wells) of α-NETA for 30 min.
For orientation: Liver microsomes are a subcellular fraction often used to study metabolism.

A further data set addresses T3, Cyp2C19 (Homo sapiens, UniProt P33261).
T3 construct: Human liver microsomes were pre-incubated with 7 concentrations; tissue Cyprotex/Evotec AG; host or cells: human liver microsomes
In words: Cyp enzyme inhibition, human liver microsomes. It is filed as in vitro ADME. The note with it: 30 min pre-incubation. The protocol: as §1

The next data set concerns the target T4, Cyp2C8 (Homo sapiens, UniProt P10632).
T4 construct: Human liver microsomes were pre-incubated with 7 concentrations; tissue Cyprotex/Evotec AG; host or cells: human liver microsomes
T4 sequence (P10632 1-490): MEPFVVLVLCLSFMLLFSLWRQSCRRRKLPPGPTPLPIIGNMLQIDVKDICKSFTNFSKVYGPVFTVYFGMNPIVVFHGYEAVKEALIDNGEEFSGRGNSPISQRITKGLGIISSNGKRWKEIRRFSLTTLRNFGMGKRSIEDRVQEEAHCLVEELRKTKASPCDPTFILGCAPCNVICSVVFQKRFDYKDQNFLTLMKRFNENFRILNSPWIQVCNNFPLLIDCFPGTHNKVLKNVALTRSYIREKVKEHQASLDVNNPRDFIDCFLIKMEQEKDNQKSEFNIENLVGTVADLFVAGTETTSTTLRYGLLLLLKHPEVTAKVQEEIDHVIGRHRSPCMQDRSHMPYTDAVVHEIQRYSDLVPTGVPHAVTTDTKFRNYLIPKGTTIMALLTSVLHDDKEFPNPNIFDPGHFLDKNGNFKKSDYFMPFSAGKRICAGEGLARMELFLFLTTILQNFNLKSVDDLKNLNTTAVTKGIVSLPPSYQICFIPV
In words: Cyp enzyme inhibition, human liver microsomes. It is filed as in vitro ADME. The note with it: 30 min pre-incubation. The protocol:
as §1

In another data set the target is T5, Cyp2C9 (Homo sapiens, UniProt P11712).
T5 construct: Human liver microsomes were pre-incubated with 7 concentrations; tissue Cyprotex/Evotec AG; host or cells: human liver microsomes
T5 sequence (P11712 whole entry): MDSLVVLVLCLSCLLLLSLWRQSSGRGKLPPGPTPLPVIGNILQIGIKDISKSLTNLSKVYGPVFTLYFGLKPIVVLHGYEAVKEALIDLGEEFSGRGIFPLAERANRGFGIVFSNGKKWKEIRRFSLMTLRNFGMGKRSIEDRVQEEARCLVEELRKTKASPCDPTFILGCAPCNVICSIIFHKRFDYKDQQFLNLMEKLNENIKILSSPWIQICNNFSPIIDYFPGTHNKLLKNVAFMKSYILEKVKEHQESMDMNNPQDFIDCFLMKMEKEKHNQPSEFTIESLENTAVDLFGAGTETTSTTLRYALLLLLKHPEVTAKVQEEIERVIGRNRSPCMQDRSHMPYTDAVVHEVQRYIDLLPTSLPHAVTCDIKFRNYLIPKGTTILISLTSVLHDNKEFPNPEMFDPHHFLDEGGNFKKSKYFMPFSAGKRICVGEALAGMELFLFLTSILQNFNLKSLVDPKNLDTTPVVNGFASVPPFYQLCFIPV
In words: Cyp enzyme inhibition, human liver microsomes. Type of data set: in vitro ADME. The note with it: 30 min pre-incubation. The protocol:
as §1

Data set [1] has as its target Pregnane X receptor (PXR) (Homo sapiens, UniProt O75469). In words: Cyp induction (PXR luciferase reporter). The note with it: concentrations up to 50 uM. Type of data set: cell-based. The protocol:
Pregnane X receptor (PXR) activation was used as a marker of Cyp induction.
Pregnane X receptor (PXR) activation was used as a marker of Cyp induction. An engineered human hepatoma cell line with a PXR luciferase reporter was incubated with the indicated concentrations of α-NETA, Rifampicin (positive control), or DMSO (negative control), and luciferase activity assessed (Cyprotex/Evotec AG).

Another data set has as its target T6, Cyp2D6 (Homo sapiens, UniProt P10635).
T6 construct: tissue Cyprotex/Evotec AG; host or cells: human liver microsomes
The note with it: PubChem BioAssay ID 1461; read-out: Cyp Inhibition IC50 (μM), Cyp2D6; cited from earlier work.

Another data set deals with Cyp3A4 (Homo sapiens, UniProt P08684). The note with it: substrate luciferin-6′ phenylpiperazinylyl; read-out: Cyp3A4 IC50 listed in PubChem; cited from earlier work.
Chain of Cyp3A4 (P08684 whole entry): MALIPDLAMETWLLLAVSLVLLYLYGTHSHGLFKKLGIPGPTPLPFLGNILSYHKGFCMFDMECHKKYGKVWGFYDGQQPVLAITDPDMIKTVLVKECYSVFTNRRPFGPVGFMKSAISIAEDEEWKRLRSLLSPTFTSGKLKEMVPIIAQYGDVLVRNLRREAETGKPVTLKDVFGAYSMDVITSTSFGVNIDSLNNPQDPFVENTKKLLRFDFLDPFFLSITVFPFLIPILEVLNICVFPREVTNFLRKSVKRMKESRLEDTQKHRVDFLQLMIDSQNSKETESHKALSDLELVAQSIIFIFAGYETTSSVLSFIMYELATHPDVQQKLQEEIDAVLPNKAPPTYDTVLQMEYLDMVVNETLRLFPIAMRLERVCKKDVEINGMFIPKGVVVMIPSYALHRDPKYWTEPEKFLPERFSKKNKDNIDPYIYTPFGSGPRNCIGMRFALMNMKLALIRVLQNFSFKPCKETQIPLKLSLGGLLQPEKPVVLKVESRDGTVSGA
The conditions of data set [2]: 5 μg into the uterine horn on days 6, 9 and 12 following fertilization; cited from earlier work.

In general, IC50 refers to the concentration needed to halve the response being measured.

Chain of Pregnane X receptor (PXR) (O75469 whole entry): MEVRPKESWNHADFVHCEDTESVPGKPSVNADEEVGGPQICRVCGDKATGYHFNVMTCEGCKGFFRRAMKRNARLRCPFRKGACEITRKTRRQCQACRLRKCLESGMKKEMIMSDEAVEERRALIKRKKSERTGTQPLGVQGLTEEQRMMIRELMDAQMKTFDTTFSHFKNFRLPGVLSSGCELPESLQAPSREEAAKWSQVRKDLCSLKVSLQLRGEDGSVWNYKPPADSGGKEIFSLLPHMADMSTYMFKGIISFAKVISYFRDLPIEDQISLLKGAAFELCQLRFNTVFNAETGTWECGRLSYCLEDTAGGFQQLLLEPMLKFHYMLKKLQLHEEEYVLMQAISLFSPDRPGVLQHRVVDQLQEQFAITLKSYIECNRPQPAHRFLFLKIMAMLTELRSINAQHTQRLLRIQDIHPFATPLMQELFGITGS
T3 sequence (P33261 whole entry): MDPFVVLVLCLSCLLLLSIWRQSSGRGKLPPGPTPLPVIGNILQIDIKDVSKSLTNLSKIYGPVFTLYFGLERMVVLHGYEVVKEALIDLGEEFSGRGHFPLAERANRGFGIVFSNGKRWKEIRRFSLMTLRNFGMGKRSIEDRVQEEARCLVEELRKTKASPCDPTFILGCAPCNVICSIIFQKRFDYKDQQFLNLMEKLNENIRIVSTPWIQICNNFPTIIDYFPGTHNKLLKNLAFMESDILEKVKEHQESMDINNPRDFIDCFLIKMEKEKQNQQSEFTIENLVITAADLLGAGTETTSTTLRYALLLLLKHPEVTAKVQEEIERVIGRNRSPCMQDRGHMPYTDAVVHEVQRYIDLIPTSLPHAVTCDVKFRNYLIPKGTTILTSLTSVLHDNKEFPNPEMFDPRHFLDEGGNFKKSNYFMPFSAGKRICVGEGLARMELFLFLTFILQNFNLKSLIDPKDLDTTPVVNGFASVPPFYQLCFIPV
T6 sequence (P10635 whole entry): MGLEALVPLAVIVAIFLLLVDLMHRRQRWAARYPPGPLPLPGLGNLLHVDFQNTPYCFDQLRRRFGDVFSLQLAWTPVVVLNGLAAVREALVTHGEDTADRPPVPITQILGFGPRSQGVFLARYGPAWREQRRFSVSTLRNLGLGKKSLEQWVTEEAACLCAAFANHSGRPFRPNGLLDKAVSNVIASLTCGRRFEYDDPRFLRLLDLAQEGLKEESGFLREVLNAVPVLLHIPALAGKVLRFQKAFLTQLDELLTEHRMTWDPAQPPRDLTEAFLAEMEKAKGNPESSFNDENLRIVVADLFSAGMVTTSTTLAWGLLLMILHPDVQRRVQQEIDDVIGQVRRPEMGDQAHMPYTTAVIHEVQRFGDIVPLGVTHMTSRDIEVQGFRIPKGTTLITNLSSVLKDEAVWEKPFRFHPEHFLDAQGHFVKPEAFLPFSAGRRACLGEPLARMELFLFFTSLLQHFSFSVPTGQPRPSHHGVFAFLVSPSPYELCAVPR

Take `C[N+](C)(C)CCC(=O)c1cccc2ccccc12.[I-]` [α-NETA, 2-(α-naphthoyl) ethyltrimethylammonium iodide]: the 50% inhibitory concentration (IC50) is 37 ± 8.9 µM on (hu)CMKLR1 L1.2 cells; 0.12 µM against Cyp2B6; 84 µM at Cyp2C19; 1.5 µM against Cyp2C8; 14.6 µM against Cyp2C9; over 10 µM on Cyp2D6. Also, at Cyp3A4, the IC50 was 0.2 µM. Further, the “PXR activation (marker of Cyp induction)” value in data set [1] is reported as “did not induce substantial PXR activity”. The embryo resorption entry in data set [2] is “significant embryo resorption”.

(Values after US11730705B2, “Small molecule CMKLR1 antagonists in inflammatory disease” (The Board of Trustees of the Leland Stanford Junior …, priority 2019, dated 2023).)
